The record followed here is patent US10766902B2, “Wee-1 inhibiting pyrazolopyrimidinone compounds” (ALMAC DISCOVERY LIMITED, priority 2016, dated 2020).

Read-outs that look alike come from different tables or passages of the source.

Assay [1] concerns A427 cells. The experiment in a line: Cell viability (CellTiter-Glo), A427. It is filed as cell-based. The note with it: Homo sapiens, A-427; cell viability after 72 hours. The method, then: (§1) All cell lines (HT29, A427, A498, SKLU-1) were obtained from the American Type Culture Collection (ATCC), maintained in the recommended media supplemented with 10% (v/v) FBS, 1% (v/v) Penicillin/streptomycin and kept at 37° C. in a humidified atmosphere with 5% CO2. Cells were seeded in 96 wp format typically at a seeding density of 3500-5000 cells/well and treated after 24 hours with increasing concentration of compound from 0 to 100 μM in ½ log unit increments. Cell viability was assessed after 72 hours (HT29, A427) or after 6 days (SKLU-1, A498) by CellTiter-Glo® as recommended by the manufacturer's instructions (Promega). Analysis and EC50 values were derived using GraphPadPrism.
A general note: ATP-based viability assays read luminescence as a measure of living cells.

In assay [2] the target is CSNK1G2 (CK1 gamma 2) (Homo sapiens (Human), UniProt P78368). The experiment in a line: SelectScreen Kinase Profiling: CSNK1G2 (CK1 gamma 2). It is filed as biochemical. The note with it: tested at 300-350 nM. The text has this: (§2) Table 4 below highlights the selectivity of a representative compound of the invention, Example 5, against a panel of 50 kinases (assessed using the Invitrogen SelectScreen® Kinase Profiling Service).

The target of assay [3] is EGFR (ErbB1) (Homo sapiens (Human), UniProt P00533). The experiment in a line: SelectScreen Kinase Profiling: EGFR (ErbB1). In kind it is biochemical. The conditions noted are these: tested at 300-350 nM.
Source text: as §2

Assay [4] concerns the target DYRK3 (Homo sapiens (Human), UniProt O43781). The experiment in a line: SelectScreen Kinase Profiling: DYRK3. It is filed as biochemical. The conditions noted are these: tested at 300-350 nM.
Source text: as §2

The target in assay [5] is RET (Homo sapiens (Human), UniProt P07949). Briefly: SelectScreen Kinase Profiling: RET. It is filed as biochemical. The conditions noted are these: tested at 300-350 nM.
In assay [6] the target is IRAK4 (Homo sapiens (Human), UniProt Q9NWZ3). Briefly: SelectScreen Kinase Profiling: IRAK4. In kind it is biochemical. The conditions noted are these: tested at 300-350 nM.
Source text: as §2

The target of assay [7] is JAK3 (Homo sapiens (Human), UniProt P52333). The experiment in a line: SelectScreen Kinase Profiling: JAK3. It is filed as biochemical. The conditions noted are these: tested at 300-350 nM.
Source text: as §2

The subject of assay [8] is phosphorylation of Cdc2 at Tyr15. Briefly: ELISA for phosphorylation of Cdc2 at Tyr15 in HT-29 / HCT-116 cells. It is filed as cell-based. The conditions noted are these: Homo sapiens. The method, then: Method 2: Determining the Effect of Compounds on the Phosphorylation of Cdc2 at Tyr15
The colorectal cancer cell lines HT-29 and HCT-116 were purchased from the ATCC and routinely maintained in McCoy's Medium (Invitrogen) supplemented with 10% Foetal Calf Serum.
The cells were trypsinised from their growing vessel and counted, 100 μL of cell suspension containing 6000 cells was pipetted into black 96 well Co-star plates and incubated overnight to allow adherence to the surface at a temperature of 37° C. and an atmosphere of 5% CO2. Test compounds were formulated in DMSO and diluted in foetal calf serum supplemented medium. Incubating medium was removed by aspiration and diluted drug supplemented medium added to each well.
The plate was returned to the incubator for an additional eight hours at 37° C. and an atmosphere of 5% CO2. Post incubation, the drug supplemented medium was aspirated from each well and the cells were washed once in ice-cold phosphate buffered saline (PBS). 100 μL of cell lysis buffer (Cell Signalling Technologies #9803) containing 20 mM Tris, 150 mM NaCl, 1 mM EDTA, 1 mM EGTA, 1% Triton-X100, 2.5 mM sodium pyrophosphate, 1 mM glycerophosphate, 1 mM Na3VO4 and 1 μg/mL leupeptin was added to each well of the 96 well plate and incubated at 4° C. for 30 min. The samples on the plate were snap frozen at −80° C. until required. Immediately before the continuation of the assay, the sample plate was thawed and centrifuged at 4° C. for 10 min and the supernatant transferred to secondary tubes or 96 well plate.
Cell supernatant was mixed in a ratio of 1:1 with sample dilutent buffer and vortexed for one minute. 100 μL of diluted sample was pipetted into pre-coated plates containing a rabbit polyclonal antibody for phospho-cdc2 (Tyr15) (Cell Signalling Technologies PathScan kit #7176). The plate was sealed and incubated overnight at 4° C.
The plate seal was removed and the well contents aspirated, followed by 3×5 min washes with 200 μL of diluted wash buffer. Between each wash the plate was tapped firmly onto blotting paper to ensure the removal of all kit solution. 100 μL of kit detection antibody was added to each well and the plate re-sealed and incubated at 37° C. for 1 h. Post incubation the plate was washed and processed in a similar manner to that previously described.
100 μL of horseradish peroxidise-linked secondary antibody was added to each test well, the plate sealed and incubated for thirty minutes at 37° C. Post incubation, the plate was washed as previously stated, followed by the addition of 100 μL of 3,3′,5,5′ tetramethylbenzidine (TMB reagent). The plate was sealed and incubated at RT for 30 min.
100 μL of stop solution was added to each well and the underside of the plate wiped with a lint-free tissue, prior to spectrophotometric determination. Absorbance from each well was read at 450 nm within 30 min of the addition of the stop solution.
The percentage of phospho-cdc2 was calculated compared to DMSO control and plotted versus the concentration of inhibitor using GraphPad Prism. Data was fitted using non-linear regression analysis and IC50 values generated.

Assay [9] addresses PHKG2 (Homo sapiens (Human), UniProt P15735). Briefly: SelectScreen Kinase Profiling: PHKG2. It is filed as biochemical. The note with it: tested at 300-350 nM.
Source text: as §2

The target of assay [10] is AMPK A1/B1/G1 (Homo sapiens (Human), UniProt Q13131). The experiment in a line: SelectScreen Kinase Profiling: AMPK A1/B1/G1. The conditions noted are these: tested at 300-350 nM. It is filed as biochemical.
Source text: as §2

For assay [11], the system named is A498 cells. Briefly: Cell viability (CellTiter-Glo), A498. It is filed as cell-based. The conditions noted are these: Homo sapiens, A498, 144 h; cell viability after 6 days. The method, then:
as §1

The target in assay [12] is MAPK14 (p38 alpha) (Homo sapiens (Human), UniProt Q16539). Briefly: SelectScreen Kinase Profiling: MAPK14 (p38 alpha). The conditions noted are these: tested at 300-350 nM. In kind it is biochemical.
Source text: as §2

Assay [13] has as its target CHEK1 (CHK1) (Homo sapiens (Human), UniProt O14757). Briefly: SelectScreen Kinase Profiling: CHEK1 (CHK1). It is filed as biochemical. The note with it: tested at 300-350 nM.
Source text: as §2

For assay [14], the target named is MAP4K4 (HGK) (Homo sapiens (Human), UniProt O95819). The experiment in a line: SelectScreen Kinase Profiling: MAP4K4 (HGK). In kind it is biochemical. The conditions noted are these: tested at 300-350 nM.
Source text: as §2

The target in assay [15] is FGFR1 (Homo sapiens (Human), UniProt P11362). The experiment in a line: SelectScreen Kinase Profiling: FGFR1. It is filed as biochemical. The note with it: tested at 300-350 nM.
Source text: as §2

Assay [16] deals with RPS6KA3 (RSK2) (Homo sapiens (Human), UniProt P51812). Briefly: SelectScreen Kinase Profiling: RPS6KA3 (RSK2). In kind it is biochemical. The conditions noted are these: tested at 300-350 nM.
Source text: as §2

The target in assay [17] is PIM1 (Homo sapiens (Human), UniProt P11309). The experiment in a line: SelectScreen Kinase Profiling: PIM1. In kind it is biochemical. The note with it: tested at 300-350 nM.
Source text: as §2

Assay [18] has as its target MAPK1 (ERK2) (Homo sapiens (Human), UniProt P28482). The experiment in a line: SelectScreen Kinase Profiling: MAPK1 (ERK2). In kind it is biochemical. The note with it: tested at 300-350 nM.
Source text: as §2

In assay [19] the target is GSK3B (GSK3 beta) (Homo sapiens (Human), UniProt P49841). The experiment in a line: SelectScreen Kinase Profiling: GSK3B (GSK3 beta). It is filed as biochemical. The conditions noted are these: tested at 300-350 nM.
Source text: as §2

MAPK1 (ERK2), sequence (P28482 whole entry): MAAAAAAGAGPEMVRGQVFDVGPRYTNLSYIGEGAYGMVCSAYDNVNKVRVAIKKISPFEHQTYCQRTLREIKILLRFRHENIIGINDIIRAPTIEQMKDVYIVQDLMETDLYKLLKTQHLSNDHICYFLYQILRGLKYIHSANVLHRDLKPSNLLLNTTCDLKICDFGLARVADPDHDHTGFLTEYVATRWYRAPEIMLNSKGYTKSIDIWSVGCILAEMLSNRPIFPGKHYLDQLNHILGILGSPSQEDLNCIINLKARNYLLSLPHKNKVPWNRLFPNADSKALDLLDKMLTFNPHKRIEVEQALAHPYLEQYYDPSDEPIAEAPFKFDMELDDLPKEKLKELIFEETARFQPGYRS
EGFR (ErbB1), sequence (P00533 25-1210): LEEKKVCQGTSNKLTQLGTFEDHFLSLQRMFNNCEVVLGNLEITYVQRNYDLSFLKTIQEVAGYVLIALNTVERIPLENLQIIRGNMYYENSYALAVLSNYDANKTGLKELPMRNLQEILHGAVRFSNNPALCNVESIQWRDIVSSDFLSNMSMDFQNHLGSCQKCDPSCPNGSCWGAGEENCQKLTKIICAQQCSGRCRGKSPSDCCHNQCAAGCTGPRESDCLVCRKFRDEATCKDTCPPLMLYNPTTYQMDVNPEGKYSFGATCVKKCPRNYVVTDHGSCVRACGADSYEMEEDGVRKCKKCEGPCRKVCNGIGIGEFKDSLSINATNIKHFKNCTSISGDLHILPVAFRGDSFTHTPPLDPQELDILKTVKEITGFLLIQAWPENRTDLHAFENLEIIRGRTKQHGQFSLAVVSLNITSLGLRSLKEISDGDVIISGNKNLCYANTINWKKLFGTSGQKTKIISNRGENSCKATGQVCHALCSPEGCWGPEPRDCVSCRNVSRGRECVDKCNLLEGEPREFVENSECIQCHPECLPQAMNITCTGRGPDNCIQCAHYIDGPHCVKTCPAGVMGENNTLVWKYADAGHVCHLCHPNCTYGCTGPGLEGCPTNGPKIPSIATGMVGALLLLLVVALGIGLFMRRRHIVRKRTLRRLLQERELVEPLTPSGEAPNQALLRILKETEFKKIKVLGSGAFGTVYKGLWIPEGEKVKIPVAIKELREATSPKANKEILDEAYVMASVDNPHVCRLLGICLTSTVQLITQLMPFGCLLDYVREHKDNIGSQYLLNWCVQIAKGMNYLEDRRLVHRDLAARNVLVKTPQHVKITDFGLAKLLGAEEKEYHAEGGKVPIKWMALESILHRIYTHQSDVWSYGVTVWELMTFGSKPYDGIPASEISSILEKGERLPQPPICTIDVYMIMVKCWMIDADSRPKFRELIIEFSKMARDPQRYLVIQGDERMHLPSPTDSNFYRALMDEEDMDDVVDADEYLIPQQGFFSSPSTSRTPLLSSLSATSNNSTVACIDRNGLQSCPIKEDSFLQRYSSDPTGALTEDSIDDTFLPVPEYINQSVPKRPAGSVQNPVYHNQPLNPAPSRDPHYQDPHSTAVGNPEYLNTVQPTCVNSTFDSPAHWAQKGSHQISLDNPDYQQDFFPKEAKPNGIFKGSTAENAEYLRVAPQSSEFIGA
AMPK A1/B1/G1, sequence (Q13131 whole entry): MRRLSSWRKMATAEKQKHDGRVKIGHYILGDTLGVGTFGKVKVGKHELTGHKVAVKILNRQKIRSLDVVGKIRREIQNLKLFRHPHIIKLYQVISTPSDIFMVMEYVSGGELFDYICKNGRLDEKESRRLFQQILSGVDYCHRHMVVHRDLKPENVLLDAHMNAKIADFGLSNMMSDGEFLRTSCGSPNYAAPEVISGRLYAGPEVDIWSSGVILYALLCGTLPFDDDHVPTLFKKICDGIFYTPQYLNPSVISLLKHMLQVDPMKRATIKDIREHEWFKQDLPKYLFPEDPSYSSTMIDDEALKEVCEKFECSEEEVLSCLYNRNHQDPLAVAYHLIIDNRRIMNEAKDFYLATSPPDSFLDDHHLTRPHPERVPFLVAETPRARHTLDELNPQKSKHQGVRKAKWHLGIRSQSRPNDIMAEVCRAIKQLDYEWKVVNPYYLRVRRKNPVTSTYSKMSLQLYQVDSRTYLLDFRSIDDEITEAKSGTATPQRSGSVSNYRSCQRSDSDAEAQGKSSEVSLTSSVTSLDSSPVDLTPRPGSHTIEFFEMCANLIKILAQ
AMPK A1/B1/G1, sequence (Q9Y478 whole entry partner): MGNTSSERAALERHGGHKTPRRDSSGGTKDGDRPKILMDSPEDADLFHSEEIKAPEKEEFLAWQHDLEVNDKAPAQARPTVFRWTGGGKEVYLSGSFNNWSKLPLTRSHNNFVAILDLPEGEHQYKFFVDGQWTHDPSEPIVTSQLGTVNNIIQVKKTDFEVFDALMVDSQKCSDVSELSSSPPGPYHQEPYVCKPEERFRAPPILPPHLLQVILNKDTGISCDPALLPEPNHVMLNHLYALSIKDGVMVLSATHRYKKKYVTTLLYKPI
AMPK A1/B1/G1, sequence (P54619 whole entry partner): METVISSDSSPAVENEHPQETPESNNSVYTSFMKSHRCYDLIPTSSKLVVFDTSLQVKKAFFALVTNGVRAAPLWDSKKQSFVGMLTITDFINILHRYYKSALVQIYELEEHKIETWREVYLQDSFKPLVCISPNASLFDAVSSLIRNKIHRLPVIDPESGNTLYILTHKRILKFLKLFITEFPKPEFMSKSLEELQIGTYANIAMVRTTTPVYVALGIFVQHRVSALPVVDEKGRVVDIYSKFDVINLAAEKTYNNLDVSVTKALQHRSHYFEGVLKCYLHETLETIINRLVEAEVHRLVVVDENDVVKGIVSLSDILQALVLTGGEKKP
GSK3B (GSK3 beta), sequence (P49841 whole entry): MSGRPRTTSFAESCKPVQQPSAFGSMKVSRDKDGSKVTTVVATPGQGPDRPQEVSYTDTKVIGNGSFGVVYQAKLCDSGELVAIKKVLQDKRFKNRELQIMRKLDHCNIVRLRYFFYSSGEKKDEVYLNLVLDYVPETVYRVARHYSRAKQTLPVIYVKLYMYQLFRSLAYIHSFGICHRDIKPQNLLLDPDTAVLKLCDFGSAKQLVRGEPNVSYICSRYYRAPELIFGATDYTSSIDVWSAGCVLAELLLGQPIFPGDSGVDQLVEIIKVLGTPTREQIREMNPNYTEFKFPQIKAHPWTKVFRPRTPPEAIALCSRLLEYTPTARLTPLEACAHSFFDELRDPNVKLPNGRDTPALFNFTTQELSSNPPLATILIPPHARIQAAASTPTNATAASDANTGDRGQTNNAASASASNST
MAPK14 (p38 alpha), sequence (Q16539 whole entry): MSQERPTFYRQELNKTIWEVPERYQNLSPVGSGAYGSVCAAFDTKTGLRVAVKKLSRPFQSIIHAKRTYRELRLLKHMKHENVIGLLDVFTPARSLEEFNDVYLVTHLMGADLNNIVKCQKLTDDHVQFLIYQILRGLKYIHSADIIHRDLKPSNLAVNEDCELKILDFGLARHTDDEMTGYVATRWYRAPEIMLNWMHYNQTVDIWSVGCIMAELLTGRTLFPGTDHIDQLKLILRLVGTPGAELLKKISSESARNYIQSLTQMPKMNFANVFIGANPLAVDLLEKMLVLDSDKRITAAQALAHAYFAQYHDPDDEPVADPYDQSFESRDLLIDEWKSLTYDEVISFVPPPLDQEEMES
IRAK4, sequence (Q9NWZ3 whole entry): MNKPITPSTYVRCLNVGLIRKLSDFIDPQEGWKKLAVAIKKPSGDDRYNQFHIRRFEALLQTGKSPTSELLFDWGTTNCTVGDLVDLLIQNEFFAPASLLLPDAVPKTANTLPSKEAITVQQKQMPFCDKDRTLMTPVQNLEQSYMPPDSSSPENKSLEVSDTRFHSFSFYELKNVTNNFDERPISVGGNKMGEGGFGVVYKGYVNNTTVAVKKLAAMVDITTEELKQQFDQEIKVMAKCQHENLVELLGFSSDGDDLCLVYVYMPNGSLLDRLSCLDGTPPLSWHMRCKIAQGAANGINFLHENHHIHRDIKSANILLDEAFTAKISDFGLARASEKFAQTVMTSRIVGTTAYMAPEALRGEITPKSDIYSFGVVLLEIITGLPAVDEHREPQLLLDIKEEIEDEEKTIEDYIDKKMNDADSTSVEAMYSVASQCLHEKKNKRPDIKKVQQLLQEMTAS
DYRK3, sequence (O43781 whole entry): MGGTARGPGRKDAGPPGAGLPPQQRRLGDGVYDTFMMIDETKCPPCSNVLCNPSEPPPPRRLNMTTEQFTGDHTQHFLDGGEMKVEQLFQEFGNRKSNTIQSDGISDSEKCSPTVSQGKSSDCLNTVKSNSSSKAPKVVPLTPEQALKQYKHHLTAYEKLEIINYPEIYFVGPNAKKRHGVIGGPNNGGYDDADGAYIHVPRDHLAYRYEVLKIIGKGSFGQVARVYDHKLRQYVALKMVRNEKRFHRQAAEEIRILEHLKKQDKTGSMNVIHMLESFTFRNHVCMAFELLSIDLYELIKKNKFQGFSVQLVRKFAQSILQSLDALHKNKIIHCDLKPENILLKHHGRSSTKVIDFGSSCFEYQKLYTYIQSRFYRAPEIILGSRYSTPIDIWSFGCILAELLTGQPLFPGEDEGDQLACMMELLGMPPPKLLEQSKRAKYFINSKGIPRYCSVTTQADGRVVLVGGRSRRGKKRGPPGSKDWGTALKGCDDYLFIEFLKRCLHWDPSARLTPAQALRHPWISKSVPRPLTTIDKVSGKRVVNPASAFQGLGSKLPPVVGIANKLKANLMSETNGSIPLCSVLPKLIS
PHKG2, sequence (P15735 whole entry): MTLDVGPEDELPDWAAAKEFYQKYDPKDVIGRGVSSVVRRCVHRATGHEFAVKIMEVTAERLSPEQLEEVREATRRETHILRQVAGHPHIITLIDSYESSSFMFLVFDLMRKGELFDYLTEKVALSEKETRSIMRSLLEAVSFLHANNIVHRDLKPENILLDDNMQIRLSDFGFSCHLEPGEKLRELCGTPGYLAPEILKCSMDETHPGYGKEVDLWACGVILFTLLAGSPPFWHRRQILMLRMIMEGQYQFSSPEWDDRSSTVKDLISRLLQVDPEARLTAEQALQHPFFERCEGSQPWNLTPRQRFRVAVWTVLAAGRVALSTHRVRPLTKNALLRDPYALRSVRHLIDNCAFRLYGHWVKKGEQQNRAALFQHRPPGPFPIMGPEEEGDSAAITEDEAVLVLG

Consider `C=CCn1c(=O)c2cnc(Nc3ccc(N4CCN(C)CC4)cc3)nc2n1-c1cccc(N=S(C)(C)=O)n1` [Example 5, 1-(6-{[Dimethyl(oxo)-λ^6-sulfanylidene]amino}pyridine-2-yl)-6-{[4-(4-methylpiperazin-1-yl)phenyl]amino}-2-(prop-2-en-1-yl)-1H,2H,3H-pyrazolo[3,4-d]pyrimidin-3-one], for which the EC50 in assay [1] was 29 nM; in [8] (8 h, Table 2, colorectal cancer cells, eight hours incubation, read-out: ELISA p-CDC2 EC50) it was 12 nM; in [8] (Table 3, read-out: ELISA p-CDC2 EC50) it was 12 nM; in assay [8] (Table 5, data obtained as described in the experimental section of the current invention, read-out: ELISA/nM) it was 12 nM; in [11], 25 nM. The “inhibition of CSNK1G2 (CK1 gamma 2)” value in [2] is “− (inhibition under 50% (tested at 300-350 nM))”. Besides, the “inhibition of EGFR (ErbB1)” value in assay [3] is “− (inhibition under 50% (tested at 300-350 nM))”. Further, in assay [4], the “inhibition of DYRK3” value is listed as “− (inhibition under 50% (tested at 300-350 nM))”. Moreover, in assay [5], the “inhibition of RET” value is “− (inhibition under 50% (tested at 300-350 nM))”. Further, the “inhibition of IRAK4” value in [6] was “− (inhibition under 50% (tested at 300-350 nM))”. Also, the “inhibition of JAK3” value in [7] was “− (inhibition under 50% (tested at 300-350 nM))”. In assay [9], the “inhibition of PHKG2” value is “− (inhibition under 50% (tested at 300-350 nM))”. Also, the “inhibition of AMPK A1/B1/G1” value in assay [10] is “− (inhibition under 50% (tested at 300-350 nM))”. For the same molecule, in [12], the “inhibition of MAPK14 (p38 alpha)” value is on record as “− (inhibition under 50% (tested at 300-350 nM))”. Further, the “inhibition of CHEK1 (CHK1)” value in assay [13] is “− (inhibition under 50% (tested at 300-350 nM))”. In addition, in assay [14], the “inhibition of MAP4K4 (HGK)” value is reported as “− (inhibition under 50% (tested at 300-350 nM))”. Further, the “inhibition of FGFR1” value in assay [15] is reported as “− (inhibition under 50% (tested at 300-350 nM))”. Further, the “inhibition of RPS6KA3 (RSK2)” value in assay [16] was “− (inhibition under 50% (tested at 300-350 nM))”. Also, the “inhibition of PIM1” value in assay [17] is on record as “− (inhibition under 50% (tested at 300-350 nM))”. Besides, the “inhibition of MAPK1 (ERK2)” value in [18] is recorded as “− (inhibition under 50% (tested at 300-350 nM))”. Also, the “inhibition of GSK3B (GSK3 beta)” value in assay [19] is “− (inhibition under 50% (tested at 300-350 nM))”.
